Test results: patent US20230144898A1, “INHIBITOR OF ASPARTIC ACID SYNTHESIS IN TUMOR CELLS, INHIBITOR OF SPHEROID FORMATION OF TUMOR CELLS, INHIBITOR OF TUMOR CELL METASTASIS, ACTIVITY ENHANCER OF GLYCOLYTIC INHIBITOR, AND PHARMACEUTICAL COMPOSITION FOR SUPPRESSING AND/OR PREVENTING TUMOR METASTASIS” (CCI HOLDINGS INC., priority 2020, published 2023)
Entries after “also recorded” stand apart in the source; their conditions may differ.

How the values were obtained:
[1] = test system: mitochondria in B16F10 cells; assay: MitoTracker Orange staining of mitochondria (Test Example 8); assay type: cell-based, mouse
Description: In order to determine the action mechanism of neopetasin on inhibiting the aspartic acid synthesis in tumor cells, the influence of neopetasin on mitochondria in B16F10 cells was evaluated. Specifically, B16F10 cells treated with neopetasin (3 µM) for 48 hours through the same method as in Test Example 1 were stained using MitoTracker Orange (Thermo Fisher Scientific, MA, USA), which labels mitochondria depending on membrane potential. In addition, as a positive control section, in place of neopetasin, metformin known as a mitochondrial respiratory chain Complex I inhibitor (mitochondrial toxin) was used at a concentration of 5000 µM to perform the same experiment. Subsequently, the cells stained as described above were photographed with a fluorescence microscope (FIG. 9A). In addition, the relationship between fluorescence intensity of the cells and the distribution of the number of cells was measured using an image cytometer (Tali, Thermo Fisher Scientific, MA, USA) (FIG. 9B).

[2] = test system: B16F10 cells; assay: Lung metastasis of cells pre-treated in vitro, tail vein injection (Test Example 13); assay type: in vivo, mouse; details: cells reacted with 3 µM in vitro; two-week non-treatment period
Description: In this test example, neopetasin (NP) was previously reacted with B16F10 cells that are derived from the mouse melanoma at a concentration of 3 µM in vitro. Thereafter, the uniform numbers of living cells were injected into the tail vein of the mice, and thereafter, no treatment was performed, and the number of metastasis lesions formed in the lung after a two-week non-treatment period was counted. The protocol of the present test example is shown in FIG. 19, and the graph showing the results of the present test example and the observation photograph of the extracted lung are shown in FIG. 20. […] Here, if neopetasin (NP) were reducing the number of lung metastasis lesions as part of the proliferation inhibitory effect on tumor cells (in other words, lung metastasis is suppressed as part of the proliferation inhibitory effect), equivalent formation of metastasis lesions should be observed in both neopetasin (NP)-administered group and the control (DMSO-administered group) during the non-treatment period in which the proliferation inhibitory effect is not exerted. However, in reality, as described above, formation of a new metastatic lesion has not been confirmed even after the non-treatment period in neopetasin (NP)-administered group.

[3] = test system: mitochondria in B16F10 cells; assay: Electron microscope observation of treated cells (Test Example 8); assay type: cell-based, mouse; details: neopetasin 3 µM, metformin 5000 µM
Description: Following the above results, the cells respectively treated with neopetasin (3 µM) and metformin (5000 µM) in the above were observed using an electron microscope. Furthermore, DMSO was administered to the negative control section, and the same experiment was performed.

[4] = test system: B16F10 cells; assay: Mouse malignant melanoma lung metastasis model (Test Example 2); assay type: in vivo; details: 50 mg/kg intraperitoneally once every two days, 5 times; after 10 days
Description: Using the mouse malignant melanoma lung metastasis model, the metastasis inhibitory effect of neopetasin on tumor cells was examined. Specifically, C57BL/6 mice (6 weeks old, female) were purchased from Japan SLC (Hamamatsu). Then, the B16F10 cells were intravenously administered from tail vein in an amount of 0.25×10^6 cells/100 µL PBS. Then, from the day when the cells were seeded, neopetasin (50 mg/kg) was intraperitoneally administered once every two days (5 times in total). After 10 days from the start of administration, the lungs were dissected and extracted, and the number of metastasis lesions observed on the lung surface was counted. In addition, the P value was calculated using Student’s T-test using the GraphPad Prism software system (GraphPad software Inc) .

[5] = test system: B16F10 cells; assay: Metabolomic analysis (amino acids) by CE-TOFMS (Test Example 7); assay type: cell-based, mouse
Description: The metabolomic analysis (amino acids) of neopetasin-treated B16F10 cells was performed. Specifically, for B16F10 cells treated with neopetasin (3 µM) through the same method as in Test Example 1, the cells were recovered at each time point of 9 hours and 48 hours after the treatment, and amino acid concentration was measured using a capillary electrophoresis-time of flight mass spectrometer (CE-TOFMS). Furthermore, the amino acid concentration in the sample was measured according to an internal standard calibration method, and the internal standard concentration in the sample was calculated as 25 µM. Moreover, for the analysis, Master Hands ver. 2.17.3.18 (Institute for Advanced Biosciences, Keio University) was used.

[6] = Cell proliferation inhibition assay (Test Example 14); assay type: cell-based; details: compared with petasin, S-petasin and S-neopetasin
Description: In this test example, IC50 values in the cell proliferation inhibition assay for petasin, neopetasin, S-petasin and S-neopetasin were measured in addition to the Petasites japonicus extract (whole extract).

[7] = test system: A2058 cells; assay: KEGG Pathway analysis using microarray (Test Example 6); assay type: cell-based, human; details: 3 µM, 8 hours
Description: The signaling pathways affected by neopetasin treatment were examined by KEGG Pathway analysis using the microarray. Specifically, A2058 cells were seeded at 0.5×10^5 cells/mL in a six-well plate, and after 24 hours of seeding, neopetasin (final concentration: 3 µM) was suspended in a medium and incubated for 8 hours. A2058 cells thus treated with neopetasin (3 µM) for 8 hours were recovered with a cell scraper. Furthermore, DMSO was administered to the negative control section, and the same experiment was performed. Next, data was collected using SurePrint G3 Human CGH microarray 8x60K (Agilent, CA, USA) and the raw data obtained for each sample was normalized with 75 percentile values (global normalization). Then, using Gene Set Enrichment Analysis (GSEA, Broad Laboratory, Massachusetts Institute of Technology, MA, USA), pathways registered in KEGG, Reactome, and GO were searched.
In FIG. 7, the genes with increased expression are shown in red, the gene groups with decreased expression are shown in blue, and the gene groups with changes therebetween are shown in white. […] In addition, when the heat map was drawn, gene groups included in the variable pathways were extracted, and the log-transformed signal data was subjected to cluster analysis by Ward’s method using JMP version 12.2.0 (SAS Institute Inc.).

[8] = test system: B16F10 cells; assay: Scratch wound healing assay (Test Example 5); assay type: cell-based, mouse; details: 0.3 µM, 72 hours
Description: Specifically, to start with, B16F10 cells were seeded in a six-well plate in an amount of 1.0×10^5 cells/mL. After 24 hours starting from seeding, scratches were then made using 200 µL chips. Thereafter, the medium was changed to a neopetasin-containing one (concentration: 0.3 µM), the cells were further cultured for 72 hours, and the cells were photographed. In addition, as a negative control section, the same experiment was performed by replacing the medium with the same medium not containing neopetasin.

C=C(C)[C@H]1C[C@@]2(C)C(=CC1=O)CC[C@@H](OC(=O)/C(C)=C\C)[C@@H]2C [Neopetasin, neopetasin]
activity relative to metformin ([1]; neopetasin 3 µM vs metformin 5000 µM): ≥ 1000 times | MitoTracker Orange fluorescence intensity ([1]; neopetasin 3 µM, metformin 5000 µM, 48 hours): enhanced fluorescence intensity | formation of metastasis lesions in lung [2]: formation of metastasis lesions was not observed | influence on mitochondria (electron microscope) [3]: most mitochondria were vacuolated | lung metastasis (number of metastasis lesions on the lung surface) [4]: extremely potently suppressed lung metastasis; also recorded: inhibited lung metastasis | concentration of aspartic acid (Asp) in the sample ([5]; 3 µM, after 9 hours): strongly reduced | aspartic acid synthesis, remaining fraction ([5]; summary statement): ⅒ | cell proliferation inhibition activity (IC50 comparison) [6]: superior cell proliferation inhibition activity to the other three compounds | changes in asparagine synthetase (ASNS) and cystathionine gamma-lyase (CTH) [7]: particularly significant changes | expression of molecules involved in amino acid metabolism [7]: greatly varies | migration of tumor cells to the scratch portion [8]: suppressed
